Measurements from publication PMC5428509, “Irreversible inhibition of BTK kinase by a novel highly selective inhibitor CHMFL-BTK-11 suppresses inflammatory response in rheumatoid arthritis model” (Scientific Reports, 2017).

What was measured:
Experiment in all cases: biochemical
Parameters in all cases: KinomeScan competition binding panel (DiscoveRx), percent of control at 1 uM
Settings in all cases: read-out: Percent Control
[1] = biological target: EGFR(L858R) (Homo sapiens, UniProt P00533, L858R)
Sequence of EGFR(L858R) (P00533 whole entry L858R): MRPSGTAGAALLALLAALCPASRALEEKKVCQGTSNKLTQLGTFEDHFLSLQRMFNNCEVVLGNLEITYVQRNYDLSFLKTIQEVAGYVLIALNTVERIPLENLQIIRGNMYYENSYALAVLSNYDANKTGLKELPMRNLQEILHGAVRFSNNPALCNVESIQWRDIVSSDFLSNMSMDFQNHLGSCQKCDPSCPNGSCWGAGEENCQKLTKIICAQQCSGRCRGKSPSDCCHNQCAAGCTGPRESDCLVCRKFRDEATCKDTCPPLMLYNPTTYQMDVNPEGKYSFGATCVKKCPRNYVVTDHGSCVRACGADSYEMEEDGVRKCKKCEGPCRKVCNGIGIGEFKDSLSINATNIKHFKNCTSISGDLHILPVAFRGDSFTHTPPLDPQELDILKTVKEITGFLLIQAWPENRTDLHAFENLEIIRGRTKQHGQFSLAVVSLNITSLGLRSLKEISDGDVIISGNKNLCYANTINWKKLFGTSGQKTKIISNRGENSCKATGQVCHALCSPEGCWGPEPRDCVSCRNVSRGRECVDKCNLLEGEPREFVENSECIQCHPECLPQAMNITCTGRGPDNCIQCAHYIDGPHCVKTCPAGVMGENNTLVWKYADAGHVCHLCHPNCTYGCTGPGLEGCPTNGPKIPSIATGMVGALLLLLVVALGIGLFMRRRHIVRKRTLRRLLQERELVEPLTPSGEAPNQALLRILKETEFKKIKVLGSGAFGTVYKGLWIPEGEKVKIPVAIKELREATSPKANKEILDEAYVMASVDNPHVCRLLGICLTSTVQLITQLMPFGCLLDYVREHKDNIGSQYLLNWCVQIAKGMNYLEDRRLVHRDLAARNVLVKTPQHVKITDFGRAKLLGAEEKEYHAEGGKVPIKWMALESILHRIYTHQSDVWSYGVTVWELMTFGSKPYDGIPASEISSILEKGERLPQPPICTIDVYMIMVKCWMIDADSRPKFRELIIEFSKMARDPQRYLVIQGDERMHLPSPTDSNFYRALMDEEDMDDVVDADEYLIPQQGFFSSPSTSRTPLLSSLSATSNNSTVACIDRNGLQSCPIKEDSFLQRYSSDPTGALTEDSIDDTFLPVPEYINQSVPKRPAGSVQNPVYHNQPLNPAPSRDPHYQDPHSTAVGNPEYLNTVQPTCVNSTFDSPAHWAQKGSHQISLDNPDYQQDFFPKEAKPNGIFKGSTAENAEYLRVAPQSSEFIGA
How it was run: (§1)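 Selectivity profiled across 456 kinases/mutants by KinomeScan binding technology.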

[2] = biological target: T1, SNARK (Homo sapiens, UniProt Q9H093)
T1 construct: gene NUAK2
How it was run: as §1

[3] = biological target: T2, MST4 (Homo sapiens, UniProt Q9P289)
T2 construct: gene STK26
How it was run: as §1

[4] = biological target: PRKD1 (Homo sapiens, UniProt Q15139)
How it was run: as §1

[5] = biological target: MAP3K4 (Homo sapiens, UniProt Q9Y6R4)
How it was run: as §1

[6] = biological target: AURKC (Homo sapiens, UniProt Q9UQB9)
How it was run: as §1

[7] = biological target: T3, MEK1 (Homo sapiens, UniProt Q02750)
T3 construct: gene MAP2K1
How it was run: as §1

[8] = biological target: BMPR2 (Homo sapiens, UniProt Q13873)
How it was run: as §1

[9] = biological target: T4, CTK (Homo sapiens, UniProt P42679)
T4 construct: gene MATK
How it was run: as §1

[10] = biological target: DAPK2 (Homo sapiens, UniProt Q9UIK4)
How it was run: as §1

[11] = biological target: T5, PKAC-alpha (Homo sapiens, UniProt P17612)
T5 construct: gene PRKACA
How it was run: as §1

[12] = biological target: MET (Homo sapiens, UniProt P08581)
How it was run: as §1

[13] = biological target: EPHB6 (Homo sapiens, UniProt O15197)
Sequence of EPHB6 (O15197 whole entry): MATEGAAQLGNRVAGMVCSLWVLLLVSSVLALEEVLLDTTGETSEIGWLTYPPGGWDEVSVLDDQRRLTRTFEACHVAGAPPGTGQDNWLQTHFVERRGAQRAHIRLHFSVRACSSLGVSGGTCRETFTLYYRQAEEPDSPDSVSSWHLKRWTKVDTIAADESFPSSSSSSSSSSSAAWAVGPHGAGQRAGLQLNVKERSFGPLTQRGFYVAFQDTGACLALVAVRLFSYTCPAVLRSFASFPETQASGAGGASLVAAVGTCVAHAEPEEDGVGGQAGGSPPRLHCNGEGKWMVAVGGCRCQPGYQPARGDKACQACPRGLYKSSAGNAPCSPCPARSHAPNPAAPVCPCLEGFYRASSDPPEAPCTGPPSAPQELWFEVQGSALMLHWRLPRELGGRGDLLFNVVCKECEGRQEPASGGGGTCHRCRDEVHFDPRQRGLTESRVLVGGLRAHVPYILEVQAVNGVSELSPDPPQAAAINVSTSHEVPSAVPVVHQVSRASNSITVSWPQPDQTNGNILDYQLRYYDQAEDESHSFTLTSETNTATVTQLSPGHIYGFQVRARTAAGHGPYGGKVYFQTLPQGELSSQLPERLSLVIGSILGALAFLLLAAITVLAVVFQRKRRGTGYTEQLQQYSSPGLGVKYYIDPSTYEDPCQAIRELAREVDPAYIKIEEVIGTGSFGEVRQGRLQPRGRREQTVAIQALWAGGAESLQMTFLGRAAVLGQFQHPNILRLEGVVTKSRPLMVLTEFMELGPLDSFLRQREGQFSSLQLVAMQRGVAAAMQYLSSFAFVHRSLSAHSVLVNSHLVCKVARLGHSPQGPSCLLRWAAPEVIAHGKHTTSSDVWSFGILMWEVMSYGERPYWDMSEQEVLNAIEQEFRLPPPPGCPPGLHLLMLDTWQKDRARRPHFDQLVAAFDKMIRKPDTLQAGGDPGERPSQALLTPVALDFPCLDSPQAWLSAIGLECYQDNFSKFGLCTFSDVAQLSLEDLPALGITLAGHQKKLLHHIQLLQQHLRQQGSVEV
How it was run: as §1

[14] = biological target: CDK8 (Homo sapiens, UniProt P49336)
How it was run: as §1

[15] = biological target: MUSK (Homo sapiens, UniProt O15146)
Sequence of MUSK (O15146 whole entry): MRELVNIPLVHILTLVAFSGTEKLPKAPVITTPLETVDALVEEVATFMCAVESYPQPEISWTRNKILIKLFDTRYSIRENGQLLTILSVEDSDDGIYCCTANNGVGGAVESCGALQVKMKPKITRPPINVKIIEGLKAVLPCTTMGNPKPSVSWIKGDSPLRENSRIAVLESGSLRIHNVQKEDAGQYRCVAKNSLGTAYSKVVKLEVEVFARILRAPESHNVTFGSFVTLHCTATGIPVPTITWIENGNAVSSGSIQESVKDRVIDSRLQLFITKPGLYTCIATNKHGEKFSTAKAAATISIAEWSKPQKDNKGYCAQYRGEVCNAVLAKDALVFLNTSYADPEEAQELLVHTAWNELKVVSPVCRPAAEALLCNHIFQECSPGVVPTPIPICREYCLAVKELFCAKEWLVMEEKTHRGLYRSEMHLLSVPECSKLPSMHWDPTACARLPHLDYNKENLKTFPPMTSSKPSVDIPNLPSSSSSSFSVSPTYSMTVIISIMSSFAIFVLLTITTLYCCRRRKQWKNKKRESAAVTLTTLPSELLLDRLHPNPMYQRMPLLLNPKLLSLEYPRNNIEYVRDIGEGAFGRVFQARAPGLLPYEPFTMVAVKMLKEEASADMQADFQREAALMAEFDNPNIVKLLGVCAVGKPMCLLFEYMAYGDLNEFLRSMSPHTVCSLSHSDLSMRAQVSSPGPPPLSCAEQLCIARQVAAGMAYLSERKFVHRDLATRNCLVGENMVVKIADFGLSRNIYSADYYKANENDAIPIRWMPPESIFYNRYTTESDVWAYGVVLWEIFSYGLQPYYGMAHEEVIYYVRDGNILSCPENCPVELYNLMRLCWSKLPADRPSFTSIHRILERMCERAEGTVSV
How it was run: as §1

[16] = biological target: ROCK2 (Homo sapiens, UniProt O75116)
How it was run: as §1

[17] = biological target: DAPK3 (Homo sapiens, UniProt O43293)
How it was run: as §1

[18] = biological target: NLK (Homo sapiens, UniProt Q9UBE8)
How it was run: as §1

[19] = biological target: T6, NIK (Homo sapiens, UniProt Q99558)
T6 construct: gene MAP3K14
How it was run: as §1

[20] = biological target: ERBB4 (Homo sapiens, UniProt Q15303)
Sequence of ERBB4 (Q15303 whole entry): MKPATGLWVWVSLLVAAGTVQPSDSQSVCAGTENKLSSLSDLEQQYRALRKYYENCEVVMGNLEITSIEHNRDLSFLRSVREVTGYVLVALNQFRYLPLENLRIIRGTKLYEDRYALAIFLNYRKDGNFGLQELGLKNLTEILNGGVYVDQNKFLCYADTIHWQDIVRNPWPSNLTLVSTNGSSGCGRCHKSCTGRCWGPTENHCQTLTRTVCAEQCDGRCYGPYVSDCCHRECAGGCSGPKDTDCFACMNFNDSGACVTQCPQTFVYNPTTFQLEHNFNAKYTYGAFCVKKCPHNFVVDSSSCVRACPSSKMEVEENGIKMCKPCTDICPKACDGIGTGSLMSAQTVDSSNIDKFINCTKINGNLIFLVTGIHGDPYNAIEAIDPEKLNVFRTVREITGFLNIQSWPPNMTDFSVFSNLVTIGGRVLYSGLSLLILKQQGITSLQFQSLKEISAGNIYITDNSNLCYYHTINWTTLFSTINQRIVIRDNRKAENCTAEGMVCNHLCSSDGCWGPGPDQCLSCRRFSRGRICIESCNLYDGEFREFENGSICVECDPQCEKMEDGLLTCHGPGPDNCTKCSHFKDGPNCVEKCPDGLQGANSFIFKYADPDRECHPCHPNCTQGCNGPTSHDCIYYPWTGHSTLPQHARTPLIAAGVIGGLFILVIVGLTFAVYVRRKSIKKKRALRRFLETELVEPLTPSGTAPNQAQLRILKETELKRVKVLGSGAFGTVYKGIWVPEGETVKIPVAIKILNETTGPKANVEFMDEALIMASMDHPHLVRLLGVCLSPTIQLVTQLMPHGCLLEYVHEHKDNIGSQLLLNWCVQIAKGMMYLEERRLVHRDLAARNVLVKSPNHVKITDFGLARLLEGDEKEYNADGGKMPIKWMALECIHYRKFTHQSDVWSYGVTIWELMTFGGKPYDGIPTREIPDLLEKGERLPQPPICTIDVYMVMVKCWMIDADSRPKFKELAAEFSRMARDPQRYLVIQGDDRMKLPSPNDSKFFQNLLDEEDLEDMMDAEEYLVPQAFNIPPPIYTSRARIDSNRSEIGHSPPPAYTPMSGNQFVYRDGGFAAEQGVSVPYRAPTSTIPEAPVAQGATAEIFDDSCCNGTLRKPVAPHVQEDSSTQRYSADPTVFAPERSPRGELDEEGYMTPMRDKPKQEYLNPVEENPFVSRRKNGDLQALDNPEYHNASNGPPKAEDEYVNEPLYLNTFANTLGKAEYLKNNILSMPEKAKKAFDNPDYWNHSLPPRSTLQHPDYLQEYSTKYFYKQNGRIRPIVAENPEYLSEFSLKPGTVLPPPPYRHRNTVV
How it was run: as §1

[21] = biological target: AKT3 (Homo sapiens, UniProt Q9Y243)
Sequence of AKT3 (Q9Y243 whole entry): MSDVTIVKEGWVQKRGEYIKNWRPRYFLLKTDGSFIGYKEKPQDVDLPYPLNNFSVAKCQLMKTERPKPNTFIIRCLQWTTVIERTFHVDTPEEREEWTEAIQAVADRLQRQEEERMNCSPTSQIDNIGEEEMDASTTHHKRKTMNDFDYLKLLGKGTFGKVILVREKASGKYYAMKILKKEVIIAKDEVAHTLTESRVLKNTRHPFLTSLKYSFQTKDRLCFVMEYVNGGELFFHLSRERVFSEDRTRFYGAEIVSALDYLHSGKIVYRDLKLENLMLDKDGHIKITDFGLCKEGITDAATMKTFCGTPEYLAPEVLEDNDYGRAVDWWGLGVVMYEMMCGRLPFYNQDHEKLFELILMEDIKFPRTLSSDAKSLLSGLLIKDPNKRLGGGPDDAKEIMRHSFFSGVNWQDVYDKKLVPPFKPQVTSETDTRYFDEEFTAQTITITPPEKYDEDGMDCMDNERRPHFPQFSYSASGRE
How it was run: as §1

[22] = biological target: EPHA6 (Homo sapiens, UniProt Q9UF33)
How it was run: as §1

[23] = biological target: T7, p38-alpha (Homo sapiens, UniProt Q16539)
T7 construct: gene MAPK14
How it was run: as §1

[24] = biological target: CSF1R-autoinhibited (Homo sapiens, UniProt P07333)
How it was run: as §1

[25] = biological target: CDKL5 (Homo sapiens, UniProt O76039)
How it was run: as §1

C=CC(=O)Nc1cc(-n2c(=O)ccc3cnc4ccc(-n5cccn5)cc4c32)ccc1C [CHMFL-BTK-11]
remaining binding at 1 µM [1]: 70%
remaining binding at 1 µM [2]: 90%
remaining binding at 1 µM [3]: 96%
remaining binding at 1 µM [4]: 94%
remaining binding at 1 µM [5]: 97%
remaining binding at 1 µM [6]: 98%
remaining binding at 1 µM [7]: 100%
remaining binding at 1 µM [8]: 100%
remaining binding at 1 µM [9]: 65%
remaining binding at 1 µM [10]: 100%
remaining binding at 1 µM [11]: 98%
remaining binding at 1 µM [12]: 100%
remaining binding at 1 µM [13]: 87%
remaining binding at 1 µM [14]: 91%
remaining binding at 1 µM [15]: 100%
remaining binding at 1 µM [16]: 97%
remaining binding at 1 µM [17]: 100%
remaining binding at 1 µM [18]: 100%
remaining binding at 1 µM [19]: 100%
remaining binding at 1 µM [20]: 91%
remaining binding at 1 µM [21]: 100%
remaining binding at 1 µM [22]: 100%
remaining binding at 1 µM [23]: 76%
remaining binding at 1 µM [24]: 70%
remaining binding at 1 µM [25]: 100%
